Data as given in patent US20120178786A9, “Use of tetramic acid derivatives for controlling pests by drenching, drip application, or dip application” (priority 2006, published 2012).

Assays:
[1] = test system: foliar nematode Aphelenchoides fragariae; experiment: Example 16: dip treatment of lily bulbs, number of infested plants; format: in vivo; conditions: control 8
Method: The bulbs of 15 lily plants cv. “L.A. Glow” (growth stage 14/16) are dipped, in four replications, into an active substance solution containing the active substance I-4 (cis isomer, formulation: 240 SC) at the concentrations stated and subsequently planted into boxes 40×60 cm in size. The bulbs came from a field which was homogeneously infested with the foliar nematode Aphelenchoides fragariae. The number of infested plants is determined by examining leaves under the microscope for foliar nematodes 92 days after the dip treatment.

[2] = test system: APHIGO; experiment: Example 2: drench of cucumber plants on rock wool, Abbott efficacy; format: in vivo, Aphis gossypii; conditions: 240 SC
Method: Cucumber plants cv. “Delikatess” which have been grown on rock wool are drenched, in six replications, one week after transplanting with in each case 100 ml active substance solution containing the active substance I-4 (cis isomer, formulation: 240 SC) at the application rate stated. The greenhouse temperature is 20° C. Infection with APHIGO is accomplished in each case seven and fourteen days after the application of the active substance. The test is evaluated in each case seven days after each infection by determining the activity with the aid of Abbott's formula.

[3] = test system: Bemisia sp.; experiment: Example 15: drench of bell pepper plots, kill rate of larvae on the leaves; format: in vivo
Method: (§1) Plots approximately 2×5 m in size which contain bell pepper plants are treated, in three replications, against Bemisia sp. The active substance example (I-4) cis isomer (240 SC) is drenched in an active substance solution at the application rate stated. The water application rate is 700 l/ha. Three treatments are carried out at intervals of 7 and 14 days. The test is evaluated in each case 7, 14, 21 and 28 days after the 3rd treatment by scoring the kill rate of the larvae on the leaves.

[4] = test system: Aphis craccivora; experiment: Example 3: drench of violet plants, Henderson-Tilton efficacy against nymphs; format: in vivo; conditions: 12 mg active substance/1 potting compost, 240 SC
Method: Violet plants cv. “Ladies delight” (approximate height 15 cm) in 4-inch pots which had been infected with Aphis craccivora two weeks before the treatment are drenched, in four replications, with an active substance solution containing the active substance I-4 (cis isomer, formulation: 240 SC) and, by way of comparison, with the commercial standard imidacloprid (240 SC) at the application rate stated. The greenhouse temperature is 27-33° C. The test is evaluated 7, 14, 22 and 35 days after the treatment by determining the activity against nymphs on the leaves with the aid of the Henderson-Tilton method.

[5] = test system: Liriomyza sp.; experiment: Example 14: drench of bell pepper plots, kill rate of larvae in the leaves; format: in vivo; conditions: 40 + 10 + 10 mg/plant, 240 SC
Method: as §1, with “against Liriomyza” for “against Bemisia”, “case 7 days after the 2nd” for “case 7, 14, 21”, “and 3rd treatment and 14” for “and 28”, “larvae in” for “larvae on”

[6] = test system: Myzus persicae (MYZUPE); experiment: Example 4: drench of aubergine plants, Abbott efficacy; format: in vivo; conditions: 240 SC
Method: (§2) Aubergine plants (25 days after sowing) in 0.5-1-pots are drenched, in three replications, with 50 ml of active substance solution containing the active substance I-4 (cis isomer, formulation: 240 SC) at the application rate stated. The greenhouse temperature is 20° C. Infection with Aphis gossypii (APHIGO), Myzus persicae (MYZUPE) and Tetranychus urticae (TETRUR) is accomplished in each case seven and fourteen days after the application of the active substance. The test is evaluated in each case seven days after each infection by determining the activity with the aid of Abbott's formula.

[7] = test system: Aphis gossypii (APHIGO); experiment: as above; format: in vivo; conditions: infection 7 d after application, 240 SC
Method: as §2

[8] = test system: MYZUPE; experiment: Example 1: irrigation experiment in pots, Abbott efficacy; format: in vivo, Myzus persicae
Method: In an irrigation experiment carried out in 0.5-1-pots, Chinese cabbage, Savoy cabbage, bell peppers and broad beans which had been potted three days earlier are watered, in two replications, with 50 ml of active substance solution containing the active substance I-4 (cis isomer) at the application rates stated. The greenhouse temperature is 20° C. Infection with MYZUPE is accomplished seven and fourteen days after the application of the active substance. The test is evaluated in each case seven days after each infection by determining the activity with the aid of Abbott's formula.

[9] = test system: Trialeurodes vaporarium (TRIAVA); experiment: Example 10: drip application to tomato plants on rock wool, Abbott efficacy; format: in vivo; conditions: three treatments
Method: In each case 12 tomato plants cv. “Briljant” on rock wool are treated, in four replications, with a drip application against Trialeurodes vaporarium (TRIAVA) with an active substance solution containing the active substance I-4 (cis isomer, formulation: 100 OD) in comparison with the commercial standard imidacloprid (70 WG) at the application rate stated. The greenhouse temperature is 20° C. Three treatments are carried out at intervals of seven and fourteen days. The test is evaluated 14, 21, 28, 36 and 43 days after the 1st treatment by determining the efficacy with the aid of Abbott's formula.

[10] = infection 7 d after application, 10 mg active substance/plant
[11] = infection 7 d after application, 20 mg active substance/plant
[12] = infection 14 d after application, 10 mg active substance/plant
[13] = infection 14 d after application, 20 mg active substance/plant

## CCOC(=O)OC1=C(c2cc(C)ccc2C)C(=O)N[C@]12CC[C@@H](OC)CC2 [Example I-4]
[1]; comparison: foliar treatment with 150 g/ha, 15 lily plants
  Infested plants: 6
[1]; lily bulbs dipped, a.i. 0.075 %, 15 plants, 92 days after dip treatment
  Infested plants: 0
[1]; lily bulbs dipped, a.i. 0.15 %, 15 plants, 92 days after dip treatment
  Infested plants: 0
[2]; [10]
  Abbott efficacy (%) against APHIGO: 100%
[2]; [11]
  Abbott efficacy (%) against APHIGO: 100%
[2]; infection 7 d after application, 40 mg active substance/plant
  Abbott efficacy (%) against APHIGO: 100%
[2]; [12]
  Abbott efficacy (%) against APHIGO: 91%
[2]; [13]
  Abbott efficacy (%) against APHIGO: 96%
[2]; infection 14 d after application, 40 mg active substance/plant
  Abbott efficacy (%) against APHIGO: 99%
[3]; 7 d after 3rd treatm., 40 + 5 + 5 mg/plant, 240 SC
  Efficacy (% Abbott) against Bemisia sp.: 86.2 % Abbott
[3]; 14 d after 3rd treatm., 40 + 5 + 5 mg/plant, 240 SC
  Efficacy (% Abbott) against Bemisia sp.: 94.4 % Abbott
[3]; 21 d after 3rd treatm., 40 + 5 + 5 mg/plant, 240 SC
  Efficacy (% Abbott) against Bemisia sp.: 94.9 % Abbott
[3]; 28 d after 3rd treatm., 40 + 5 + 5 mg/plant, 240 SC
  Efficacy (% Abbott) against Bemisia sp.: 90.5 % Abbott
[4]; 7 d after treatment
  Henderson-Tilton efficacy (%) against Aphis craccivora: 100%
[4]; 14 d after treatment
  Henderson-Tilton efficacy (%) against Aphis craccivora: 84%
[4]; 22 d after treatment
  Henderson-Tilton efficacy (%) against Aphis craccivora: 100%
[4]; 35 d after treatment
  Henderson-Tilton efficacy (%) against Aphis craccivora: 100%
[5]; 7 d after 2nd treatment
  Efficacy (% Abbott) against Liriomyza sp.: 66.7 % Abbott
[5]; 7 d after 3rd treatment
  Efficacy (% Abbott) against Liriomyza sp.: 100 % Abbott
[5]; 14 d after 3rd treatment
  Efficacy (% Abbott) against Liriomyza sp.: 81.8 % Abbott
[6]; [10]
  Abbott efficacy (%) against MYZUPE: 100%
[6]; [11]
  Abbott efficacy (%) against MYZUPE: 100%
[6]; [12]
  Abbott efficacy (%) against MYZUPE: 100%
[6]; [13]
  Abbott efficacy (%) against MYZUPE: 100%
[7]; 10 mg active substance/plant
  Abbott efficacy (%) against APHIGO: 99%
[7]; 20 mg active substance/plant
  Abbott efficacy (%) against APHIGO: 100%
[8]; Bell pepper, infection 7 d after application, 10 mg active substance/plant
  Abbott efficacy (%) against MYZUPE: 100%
[8]; Bell pepper, infection 7 d after application, 20 mg active substance/plant
  Abbott efficacy (%) against MYZUPE: 100%
[8]; Bell pepper, infection 14 d after application, 10 mg active substance/plant
  Abbott efficacy (%) against MYZUPE: 100%
[8]; Bell pepper, infection 14 d after application, 20 mg active substance/plant
  Abbott efficacy (%) against MYZUPE: 100%
[8]; Broad bean, infection 7 d after application, 10 mg active substance/plant
  Abbott efficacy (%) against MYZUPE: 83%
[8]; Broad bean, infection 7 d after application, 20 mg active substance/plant
  Abbott efficacy (%) against MYZUPE: 100%
[8]; Broad bean, infection 14 d after application, 10 mg active substance/plant
  Abbott efficacy (%) against MYZUPE: 23%
[8]; Broad bean, infection 14 d after application, 20 mg active substance/plant
  Abbott efficacy (%) against MYZUPE: 99%
[8]; Chinese cabbage, infection 7 d after application, 10 mg active substance/plant
  Abbott efficacy (%) against MYZUPE: 100%
[8]; Chinese cabbage, infection 7 d after application, 20 mg active substance/plant
  Abbott efficacy (%) against MYZUPE: 100%
[8]; Chinese cabbage, infection 14 d after application, 10 mg active substance/plant
  Abbott efficacy (%) against MYZUPE: 99%
[8]; Chinese cabbage, infection 14 d after application, 20 mg active substance/plant
  Abbott efficacy (%) against MYZUPE: 99%
[8]; Savoy cabbage, infection 7 d after application, 10 mg active substance/plant
  Abbott efficacy (%) against MYZUPE: 100%
[8]; Savoy cabbage, infection 7 d after application, 20 mg active substance/plant
  Abbott efficacy (%) against MYZUPE: 100%
[8]; Savoy cabbage, infection 14 d after application, 10 mg active substance/plant
  Abbott efficacy (%) against MYZUPE: 99%
[8]; Savoy cabbage, infection 14 d after application, 20 mg active substance/plant
  Abbott efficacy (%) against MYZUPE: 99%
[9]; 14 d after 1st treatment, 20 mg active substance/plant, 100 OD
  Abbott efficacy (%) against TRIAVA: 26.8%
[9]; 21 d after 1st treatment, 20 mg active substance/plant, 100 OD
  Abbott efficacy (%) against TRIAVA: 66.3%
[9]; 28 d after 1st treatment, 20 mg active substance/plant, 100 OD
  Abbott efficacy (%) against TRIAVA: 90.4%
[9]; 36 d after 1st treatment, 20 mg active substance/plant, 100 OD
  Abbott efficacy (%) against TRIAVA: 95.6%
[9]; 43 d after 1st treatment, 20 mg active substance/plant, 100 OD
  Abbott efficacy (%) against TRIAVA: 97.9%

## O=[N+]([O-])NC1=NCCN1Cc1ccc(Cl)nc1 [Imidacloprid, imidacloprid, reference compound]
[3]; 7 d after 3rd treatm., 10.5 mg/plant
  Efficacy (% Abbott) against Bemisia sp.: 96.6 % Abbott
[3]; 14 d after 3rd treatm., 10.5 mg/plant
  Efficacy (% Abbott) against Bemisia sp.: 80.6 % Abbott
[3]; 21 d after 3rd treatm., 10.5 mg/plant
  Efficacy (% Abbott) against Bemisia sp.: 84.6 % Abbott
[3]; 28 d after 3rd treatm., 10.5 mg/plant
  Efficacy (% Abbott) against Bemisia sp.: 85.7 % Abbott
[4]; 7 d after treatment
  Henderson-Tilton efficacy (%) against Aphis craccivora: 100%
[4]; 14 d after treatment
  Henderson-Tilton efficacy (%) against Aphis craccivora: 94%
[4]; 22 d after treatment
  Henderson-Tilton efficacy (%) against Aphis craccivora: 100%
[4]; 35 d after treatment
  Henderson-Tilton efficacy (%) against Aphis craccivora: 100%
[9]; 14 d after 1st treatment, 9.8 mg active substance/plant, 70 WG
  Abbott efficacy (%) against TRIAVA: 28.4%
[9]; 21 d after 1st treatment, 9.8 mg active substance/plant, 70 WG
  Abbott efficacy (%) against TRIAVA: 55.3%
[9]; 28 d after 1st treatment, 9.8 mg active substance/plant, 70 WG
  Abbott efficacy (%) against TRIAVA: 89.1%
[9]; 36 d after 1st treatment, 9.8 mg active substance/plant, 70 WG
  Abbott efficacy (%) against TRIAVA: 92.0%
[9]; 43 d after 1st treatment, 9.8 mg active substance/plant, 70 WG
  Abbott efficacy (%) against TRIAVA: 89.8%
